Test results published in PMC9814781, “Structure-based design of a dual-warhead covalent inhibitor of FGFR4” (Communications Chemistry, 2022).

Key:
Huh7 = Huh7 viability assay; assay type: cell-based; settings: Homo sapiens, Huh-7; Huh7, FGF19-overexpressing HCC cell line, 72 h, CCK-8
Procedure: Hep3B (ThermoFisher Scientific, 11965, America) and Huh7 (ThermoFisher Scientific, 11095, America) cells were seeded into 96-well plates at 4000 cells/well and 2000 cells/well, respectively. […] Cell viabilities were measured by a CCK-8 kit (Vazyme, China). The IC50 values were calculated using GraphPad Prism software.

DYRK4 = biological target: T1, DYRK4 (Homo sapiens, UniProt Q9NR20); assay: Kinase selectivity profiling; assay type: biochemical; settings: DYRK4, 1000 nM
T1 construct: purchased ICE Bioscience

TRKB = TRKB (Homo sapiens, UniProt Q16620); assay: Kinase selectivity profiling
FER = FER (Homo sapiens, UniProt P16591); assay: Kinase selectivity profiling
TSSK1 = TSSK1 (Homo sapiens, UniProt Q9BXA7); assay: Kinase selectivity profiling
MINK = MINK (Homo sapiens, UniProt Q8N4C8); assay: Kinase selectivity profiling
AurA = AurA (Homo sapiens, UniProt O14965); assay: Kinase selectivity profiling
PI3K(p120gamma) = PI3K(p120gamma) (Homo sapiens, UniProt P48736); assay: Kinase selectivity profiling
BMX = BMX (Homo sapiens, UniProt P51813); assay: Kinase selectivity profiling
GSK3α = GSK3α (Homo sapiens, UniProt P49840); assay: Kinase selectivity profiling
NEK9 = NEK9 (Homo sapiens, UniProt Q8TD19); assay: Kinase selectivity profiling
ITK = ITK (Homo sapiens, UniProt Q08881); assay: Kinase selectivity profiling
AKT2 = AKT2 (Homo sapiens, UniProt P31751); assay: Kinase selectivity profiling
CSK = CSK (Homo sapiens, UniProt P41240); assay: Kinase selectivity profiling
GLK = GLK (Homo sapiens, UniProt Q8IVH8); assay: Kinase selectivity profiling
DAPK1 = DAPK1 (Homo sapiens, UniProt P53355); assay: Kinase selectivity profiling
PIM2 = PIM2 (Homo sapiens, UniProt Q9P1W9); assay: Kinase selectivity profiling
PYK2 = PYK2 (Homo sapiens, UniProt Q14289); assay: Kinase selectivity profiling
BRK = BRK (Homo sapiens, UniProt Q13882); assay: Kinase selectivity profiling
p70S6K = p70S6K (Homo sapiens, UniProt P23443); assay: Kinase selectivity profiling
SGK3 = SGK3 (Homo sapiens, UniProt Q96BR1); assay: Kinase selectivity profiling
Erk2 = Erk2 (Homo sapiens, UniProt P28482); assay: Kinase selectivity profiling
JAK2 = JAK2 (Homo sapiens, UniProt O60674); assay: Kinase selectivity profiling
JNK2 = JNK2 (Homo sapiens, UniProt P45984); assay: Kinase selectivity profiling
FGFR2 = FGFR2 (Homo sapiens, UniProt P21802); assay: Kinase selectivity profiling
MAPKAPK2 = MAPKAPK2 (Homo sapiens, UniProt P49137); assay: Kinase selectivity profiling
EPHA8 = EPHA8 (Homo sapiens, UniProt P29322); assay: Kinase selectivity profiling
CDK5/p35NCK = CDK5/p35NCK (Homo sapiens, UniProt Q00535); assay: Kinase selectivity profiling
FLT3 = FLT3 (Homo sapiens, UniProt P36888); assay: Kinase selectivity profiling
MAP3K3 = MAP3K3 (Homo sapiens, UniProt Q99759); assay: Kinase selectivity profiling
BRAF[V600E] = BRAF[V600E] (Homo sapiens, UniProt P15056, V600E); assay: Kinase selectivity profiling
RSK1 = RSK1 (Homo sapiens, UniProt Q15418); assay: Kinase selectivity profiling
CDK2/CycA2 = CDK2/CycA2 (Homo sapiens, UniProt P24941); assay: Kinase selectivity profiling
IRR = IRR (Homo sapiens, UniProt P14616); assay: Kinase selectivity profiling
JNK3 = JNK3 (Homo sapiens, UniProt P53779); assay: Kinase selectivity profiling
CDK3/CycE1 = CDK3/CycE1 (Homo sapiens, UniProt Q00526); assay: Kinase selectivity profiling
FYNa = FYNa (Homo sapiens, UniProt P06241); assay: Kinase selectivity profiling
KIT = KIT (Homo sapiens, UniProt P10721); assay: Kinase selectivity profiling
PLK2 = PLK2 (Homo sapiens, UniProt Q9NYY3); assay: Kinase selectivity profiling

Sequence of FYNa (P06241 whole entry): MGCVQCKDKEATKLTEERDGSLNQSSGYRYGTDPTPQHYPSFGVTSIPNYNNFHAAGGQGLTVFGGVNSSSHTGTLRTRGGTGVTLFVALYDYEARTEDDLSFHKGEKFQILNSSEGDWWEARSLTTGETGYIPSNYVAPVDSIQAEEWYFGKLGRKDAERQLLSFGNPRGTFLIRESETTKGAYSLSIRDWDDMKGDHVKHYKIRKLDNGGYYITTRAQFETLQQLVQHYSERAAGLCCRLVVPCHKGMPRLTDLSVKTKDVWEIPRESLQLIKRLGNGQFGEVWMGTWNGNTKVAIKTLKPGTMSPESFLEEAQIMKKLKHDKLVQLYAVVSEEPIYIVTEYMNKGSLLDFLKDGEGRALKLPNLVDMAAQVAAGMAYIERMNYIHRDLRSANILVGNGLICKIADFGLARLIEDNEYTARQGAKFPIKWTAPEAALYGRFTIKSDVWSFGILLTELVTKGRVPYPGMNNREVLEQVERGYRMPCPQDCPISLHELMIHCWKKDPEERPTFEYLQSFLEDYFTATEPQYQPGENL
Sequence of GSK3α (P49840 whole entry): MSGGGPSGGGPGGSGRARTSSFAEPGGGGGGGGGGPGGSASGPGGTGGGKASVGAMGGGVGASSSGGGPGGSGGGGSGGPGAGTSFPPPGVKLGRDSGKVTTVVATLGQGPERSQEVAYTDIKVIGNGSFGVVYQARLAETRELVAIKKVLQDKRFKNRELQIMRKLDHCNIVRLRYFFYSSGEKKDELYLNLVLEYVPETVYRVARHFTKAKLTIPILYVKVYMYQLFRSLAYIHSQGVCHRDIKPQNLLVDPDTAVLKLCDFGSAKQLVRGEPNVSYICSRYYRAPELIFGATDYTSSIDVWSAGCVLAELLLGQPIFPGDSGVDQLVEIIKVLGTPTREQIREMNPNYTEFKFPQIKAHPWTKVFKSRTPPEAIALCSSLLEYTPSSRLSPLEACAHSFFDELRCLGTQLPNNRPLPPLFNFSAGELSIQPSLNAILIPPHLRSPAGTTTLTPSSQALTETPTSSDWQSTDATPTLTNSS
Sequence of AKT2 (P31751 whole entry): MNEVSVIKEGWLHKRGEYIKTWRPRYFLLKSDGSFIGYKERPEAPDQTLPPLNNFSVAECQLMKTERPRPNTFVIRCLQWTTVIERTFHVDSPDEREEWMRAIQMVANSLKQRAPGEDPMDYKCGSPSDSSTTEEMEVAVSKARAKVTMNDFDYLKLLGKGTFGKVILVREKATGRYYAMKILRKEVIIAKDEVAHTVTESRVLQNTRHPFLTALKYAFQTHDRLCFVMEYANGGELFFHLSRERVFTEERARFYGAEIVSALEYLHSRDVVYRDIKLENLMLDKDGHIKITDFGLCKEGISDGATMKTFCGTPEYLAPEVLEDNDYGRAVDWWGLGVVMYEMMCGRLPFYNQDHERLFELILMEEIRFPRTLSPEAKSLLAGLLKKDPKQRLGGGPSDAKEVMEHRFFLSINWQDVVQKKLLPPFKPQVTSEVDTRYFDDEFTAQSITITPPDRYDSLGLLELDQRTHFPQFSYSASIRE
Sequence of TRKB (Q16620 32-822): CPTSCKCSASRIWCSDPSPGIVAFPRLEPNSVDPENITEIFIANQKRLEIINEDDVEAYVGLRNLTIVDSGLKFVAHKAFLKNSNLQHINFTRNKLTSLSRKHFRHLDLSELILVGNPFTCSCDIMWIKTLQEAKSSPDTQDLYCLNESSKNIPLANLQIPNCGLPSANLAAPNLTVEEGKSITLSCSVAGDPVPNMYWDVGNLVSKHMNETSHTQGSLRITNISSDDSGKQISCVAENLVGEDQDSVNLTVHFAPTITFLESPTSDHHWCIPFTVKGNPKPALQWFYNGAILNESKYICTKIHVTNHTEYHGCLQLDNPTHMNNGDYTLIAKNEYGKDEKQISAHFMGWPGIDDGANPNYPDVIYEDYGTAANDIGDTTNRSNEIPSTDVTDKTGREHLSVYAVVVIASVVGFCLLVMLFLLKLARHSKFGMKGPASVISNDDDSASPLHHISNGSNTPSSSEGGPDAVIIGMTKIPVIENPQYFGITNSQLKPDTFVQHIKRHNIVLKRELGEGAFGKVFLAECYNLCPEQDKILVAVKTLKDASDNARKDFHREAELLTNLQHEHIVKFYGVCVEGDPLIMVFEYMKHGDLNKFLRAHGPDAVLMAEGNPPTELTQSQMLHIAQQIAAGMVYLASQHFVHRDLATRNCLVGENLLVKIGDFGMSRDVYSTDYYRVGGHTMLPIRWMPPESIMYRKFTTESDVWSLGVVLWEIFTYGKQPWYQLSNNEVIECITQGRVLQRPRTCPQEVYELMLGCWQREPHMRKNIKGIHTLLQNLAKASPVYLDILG
Sequence of CSK (P41240 whole entry): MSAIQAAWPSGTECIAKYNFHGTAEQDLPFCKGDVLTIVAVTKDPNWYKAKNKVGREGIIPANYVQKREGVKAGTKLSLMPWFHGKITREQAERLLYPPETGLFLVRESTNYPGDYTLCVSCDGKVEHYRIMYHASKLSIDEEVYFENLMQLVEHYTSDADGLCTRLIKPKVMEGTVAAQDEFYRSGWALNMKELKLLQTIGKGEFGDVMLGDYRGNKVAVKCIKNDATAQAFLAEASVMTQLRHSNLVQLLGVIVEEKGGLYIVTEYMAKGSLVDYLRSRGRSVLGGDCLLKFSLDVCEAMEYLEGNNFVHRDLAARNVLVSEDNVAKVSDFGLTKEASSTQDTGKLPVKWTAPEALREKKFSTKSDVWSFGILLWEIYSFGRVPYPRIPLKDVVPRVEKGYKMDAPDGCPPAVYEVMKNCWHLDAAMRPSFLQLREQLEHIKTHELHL
Sequence of DAPK1 (P53355 whole entry): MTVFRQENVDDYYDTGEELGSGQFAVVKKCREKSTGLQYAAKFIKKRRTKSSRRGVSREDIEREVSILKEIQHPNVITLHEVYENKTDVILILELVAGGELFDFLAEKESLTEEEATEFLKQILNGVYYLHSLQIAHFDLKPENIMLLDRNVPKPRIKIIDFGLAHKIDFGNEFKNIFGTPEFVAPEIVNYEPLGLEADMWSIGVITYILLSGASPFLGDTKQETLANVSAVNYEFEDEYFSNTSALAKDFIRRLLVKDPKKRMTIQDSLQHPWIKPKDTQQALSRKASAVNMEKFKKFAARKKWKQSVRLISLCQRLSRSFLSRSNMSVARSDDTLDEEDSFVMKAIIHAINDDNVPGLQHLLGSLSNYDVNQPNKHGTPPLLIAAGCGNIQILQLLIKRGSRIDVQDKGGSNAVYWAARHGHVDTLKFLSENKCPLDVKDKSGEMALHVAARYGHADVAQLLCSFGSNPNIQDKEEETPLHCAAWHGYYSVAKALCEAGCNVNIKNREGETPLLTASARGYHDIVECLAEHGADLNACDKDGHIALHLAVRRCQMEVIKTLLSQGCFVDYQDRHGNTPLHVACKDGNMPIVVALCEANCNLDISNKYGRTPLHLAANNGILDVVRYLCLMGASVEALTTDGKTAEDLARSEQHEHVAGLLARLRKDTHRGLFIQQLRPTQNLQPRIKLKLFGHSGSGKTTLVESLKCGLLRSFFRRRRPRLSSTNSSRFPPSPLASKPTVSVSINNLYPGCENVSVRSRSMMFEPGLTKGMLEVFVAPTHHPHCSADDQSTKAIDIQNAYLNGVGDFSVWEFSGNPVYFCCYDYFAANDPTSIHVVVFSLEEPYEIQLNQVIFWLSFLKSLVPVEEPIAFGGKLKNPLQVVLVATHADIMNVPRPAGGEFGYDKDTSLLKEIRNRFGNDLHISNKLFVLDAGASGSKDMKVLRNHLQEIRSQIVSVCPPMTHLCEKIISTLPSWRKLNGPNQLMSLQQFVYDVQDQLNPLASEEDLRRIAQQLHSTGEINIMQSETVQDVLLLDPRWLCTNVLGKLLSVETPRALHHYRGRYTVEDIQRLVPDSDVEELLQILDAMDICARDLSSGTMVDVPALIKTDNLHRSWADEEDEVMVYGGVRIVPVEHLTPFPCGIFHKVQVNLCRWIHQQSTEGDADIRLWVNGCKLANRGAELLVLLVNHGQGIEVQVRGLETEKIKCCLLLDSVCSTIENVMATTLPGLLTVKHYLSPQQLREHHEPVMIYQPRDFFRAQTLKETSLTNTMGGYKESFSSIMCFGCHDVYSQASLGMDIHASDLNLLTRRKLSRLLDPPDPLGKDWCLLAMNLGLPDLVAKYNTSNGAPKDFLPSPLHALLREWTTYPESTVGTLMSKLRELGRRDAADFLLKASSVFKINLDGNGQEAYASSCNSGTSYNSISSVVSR
Sequence of FGFR2 (P21802 22-821): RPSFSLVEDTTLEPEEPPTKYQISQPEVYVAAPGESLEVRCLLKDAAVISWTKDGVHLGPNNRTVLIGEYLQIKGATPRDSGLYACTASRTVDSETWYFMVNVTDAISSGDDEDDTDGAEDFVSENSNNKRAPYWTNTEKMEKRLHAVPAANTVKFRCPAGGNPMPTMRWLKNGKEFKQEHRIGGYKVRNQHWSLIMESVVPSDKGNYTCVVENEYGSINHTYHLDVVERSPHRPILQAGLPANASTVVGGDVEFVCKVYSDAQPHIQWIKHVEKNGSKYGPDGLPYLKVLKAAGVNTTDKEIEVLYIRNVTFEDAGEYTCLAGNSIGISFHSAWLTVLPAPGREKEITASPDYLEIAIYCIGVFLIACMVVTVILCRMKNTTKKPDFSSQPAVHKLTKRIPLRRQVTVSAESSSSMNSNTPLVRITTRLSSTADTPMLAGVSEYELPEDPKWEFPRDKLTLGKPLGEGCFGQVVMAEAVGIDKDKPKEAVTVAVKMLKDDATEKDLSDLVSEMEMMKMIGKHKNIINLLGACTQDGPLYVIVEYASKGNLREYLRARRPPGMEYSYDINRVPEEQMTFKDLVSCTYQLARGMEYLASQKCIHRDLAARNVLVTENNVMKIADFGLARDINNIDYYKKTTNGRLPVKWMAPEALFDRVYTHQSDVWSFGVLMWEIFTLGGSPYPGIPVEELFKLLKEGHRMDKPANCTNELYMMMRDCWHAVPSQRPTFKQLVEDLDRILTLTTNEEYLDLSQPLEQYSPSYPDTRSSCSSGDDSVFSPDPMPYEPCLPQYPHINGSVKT

C=CC(=O)Nc1ccccc1Nc1ncc2c(n1)N(CCCN1CCN(C(=O)C=C)CC1)C(=O)N(c1cc(OC)cc(OC)c1)C2 [CXF-009]
IC50 (Huh7): 727 nM
inhibition at 1 µM (DYRK4): 1.84%
inhibition at 1 µM (TRKB): 42.1%
inhibition at 1 µM (FER): 37.1%
inhibition at 1 µM (TSSK1): 30%
inhibition at 1 µM (MINK): 16.6%
inhibition at 1 µM (AurA): 15.4%
inhibition at 1 µM (PI3K(p120gamma)): 15%
inhibition at 1 µM (BMX): 10.5%
inhibition at 1 µM (GSK3α): 5.79%
inhibition at 1 µM (NEK9): 5.11%
inhibition at 1 µM (ITK): 4.35%
inhibition at 1 µM (AKT2): 3.35%
inhibition at 1 µM (CSK): 3.29%
inhibition at 1 µM (GLK): 2.68%
inhibition at 1 µM (DAPK1): 2.52%
inhibition at 1 µM (PIM2): 2.38%
inhibition at 1 µM (PYK2): 2.11%
inhibition at 1 µM (BRK): 1.91%
inhibition at 1 µM (p70S6K): 1.69%
inhibition at 1 µM (SGK3): 1.58%
inhibition at 1 µM (Erk2): 0.94%
inhibition at 1 µM (JAK2): 0.56%
inhibition at 1 µM (JNK2): 0.4%
inhibition at 1 µM (FGFR2): 0.27%
inhibition at 1 µM (MAPKAPK2): 0.15%
inhibition at 1 µM (EPHA8): -0.52%
inhibition at 1 µM (CDK5/p35NCK): -0.87%
inhibition at 1 µM (FLT3): -1.11%
inhibition at 1 µM (MAP3K3): -1.62%
inhibition at 1 µM (BRAF[V600E]): -1.68%
inhibition at 1 µM (RSK1): -2.52%
inhibition at 1 µM (CDK2/CycA2): -2.58%
inhibition at 1 µM (IRR): -3.5%
inhibition at 1 µM (JNK3): -3.67%
inhibition at 1 µM (CDK3/CycE1): -7.17%
inhibition at 1 µM (FYNa): -9.44%
inhibition at 1 µM (KIT): -14.3%
inhibition at 1 µM (PLK2): -19.5%
